Test systems include RPMI-8226 leukemia; OVCAR-5 ovarian; A549 NSCLC; SW-620 colon; SK-MEL-28 melanoma; SF-539 CNS; HCT-15 colon; U251 CNS; NCI/ADR-RES ovarian; MOLT-4 leukemia; UACC-257 melanoma; SK-MEL-5 melanoma; LOX IMVI melanoma.
What all share (test): NCI anticancer screen, dose series, 48 h

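48-hour exposure; five concentrations; linearly interpolated endpoints. TGI marks complete inhibition of growth.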

Turning to `c1ccc(CSc2nc(N3CCOCC3)c3cn[nH]c3n2)cc1`, the TGI in the assay on RPMI-8226 leukemia is 35.2 µM; with OVCAR-5 ovarian, above 100 µM; in the assay on A549 NSCLC it was above 100 µM; in the assay on SW-620 colon, 64.8 µM; with SK-MEL-28 melanoma it was 43.4 µM; in the assay with SF-539 CNS, 56.4 µM. For the same compound, the TGI in the assay on HCT-15 colon is above 100 µM; in the assay with U251 CNS it was 63.2 µM; in the assay on NCI/ADR-RES ovarian, 55.6 µM; with MOLT-4 leukemia, above 100 µM; in the assay with UACC-257 melanoma it was 29.9 µM; in the assay on SK-MEL-5 melanoma, 30.9 µM. In the assay on LOX IMVI melanoma, this compound yielded a TGI of 44.1 µM.

With `COC(=O)CCC12CCC(O1)c1ccccc12` (stereo not drawn), the TGI in the assay with RPMI-8226 leukemia, in the assay on OVCAR-5 ovarian, in the assay with A549 NSCLC, in the assay with SW-620 colon, in the assay with SK-MEL-28 melanoma and in the assay on SF-539 CNS was above 100 µM in each case. Further, the TGI with HCT-15 colon, with U251 CNS, in the assay on NCI/ADR-RES ovarian, with MOLT-4 leukemia, with UACC-257 melanoma and with SK-MEL-5 melanoma was above 100 µM each time. The compound further returned a TGI with LOX IMVI melanoma above 100 µM.

Turning to `Cc1cccc(NC(=S)N=Nc2c(O)[nH]c3ccccc23)c1`, the TGI with RPMI-8226 leukemia, with OVCAR-5 ovarian, with A549 NSCLC, in the assay with SW-620 colon, in the assay on SK-MEL-28 melanoma and in the assay with SF-539 CNS was above 100 µM throughout. In addition, the TGI in the assay on HCT-15 colon is above 100 µM; in the assay on U251 CNS, above 100 µM; in the assay on NCI/ADR-RES ovarian, 85.9 µM; in the assay with MOLT-4 leukemia it was above 100 µM; in the assay on UACC-257 melanoma, above 100 µM; in the assay with SK-MEL-5 melanoma, above 100 µM. The same compound registered a TGI in the assay on LOX IMVI melanoma above 100 µM.

Take `N/C(=N/n1c(=S)[nH]c2ccccc2c1=O)Nn1c(=S)[nH]c2ccccc2c1=O`: the TGI in the assay on RPMI-8226 leukemia was 57.5 µM; in the assay on OVCAR-5 ovarian, above 100 µM; in the assay with A549 NSCLC, above 100 µM; with SW-620 colon it was 38.6 µM; in the assay with SK-MEL-28 melanoma, 72.6 µM; in the assay with SF-539 CNS, 56.2 µM. Also, the TGI in the assay with HCT-15 colon is 55.5 µM; in the assay on U251 CNS, 72.3 µM; in the assay with NCI/ADR-RES ovarian it was above 100 µM; in the assay on MOLT-4 leukemia it was 31 µM; with UACC-257 melanoma, above 100 µM; with SK-MEL-5 melanoma, above 100 µM. In the assay with LOX IMVI melanoma, the TGI is 46 µM.

Regarding `OC1COC(n2c3ccc(Br)cc3c3ccc4c5ccccc5[nH]c4c32)C(O)C1O` (stereo not drawn), the TGI in the assay on RPMI-8226 leukemia is 15.8 µM; with OVCAR-5 ovarian it was 12.4 µM; in the assay with A549 NSCLC it was 23.7 µM; in the assay with SW-620 colon, 29.4 µM; in the assay on SK-MEL-28 melanoma, 28.9 µM; in the assay on SF-539 CNS it was 16.2 µM. Moreover, the TGI was found to be 15.7 µM with HCT-15 colon; 32.1 µM in the assay with U251 CNS; 19.1 µM in the assay with NCI/ADR-RES ovarian; 11.2 µM in the assay with MOLT-4 leukemia; 19.9 µM with UACC-257 melanoma; 5.2 µM in the assay on SK-MEL-5 melanoma. Moreover, the TGI in the assay with LOX IMVI melanoma came out at 10.4 µM.

With `O=c1oc2ccccc2n1CCN1CCCCC1`, the TGI in the assay on RPMI-8226 leukemia, with OVCAR-5 ovarian, in the assay with SW-620 colon, with SK-MEL-28 melanoma, with SF-539 CNS and in the assay on HCT-15 colon was above 100 µM each time. The TGI with U251 CNS, with NCI/ADR-RES ovarian, in the assay on MOLT-4 leukemia, in the assay on UACC-257 melanoma, in the assay on SK-MEL-5 melanoma and in the assay on LOX IMVI melanoma was above 100 µM in each case.

For the compound `Cc1nc2c(sc3nc4ccccc4n32)c(=O)[nH]1`, the TGI with RPMI-8226 leukemia, in the assay with OVCAR-5 ovarian, with A549 NSCLC, with SW-620 colon, in the assay with SK-MEL-28 melanoma and in the assay on SF-539 CNS was above 100 µM in each case. For the same compound, the TGI with HCT-15 colon, in the assay with U251 CNS, with NCI/ADR-RES ovarian, with MOLT-4 leukemia, with UACC-257 melanoma and in the assay with SK-MEL-5 melanoma was above 100 µM in each case. Also, the TGI in the assay on LOX IMVI melanoma was above 100 µM.

On to `Cc1ccc(Nc2cc(=O)[nH]c(=S)[nH]2)cc1`, for which the TGI with RPMI-8226 leukemia, in the assay with OVCAR-5 ovarian, with A549 NSCLC, in the assay on SW-620 colon, in the assay on SF-539 CNS and in the assay with HCT-15 colon was above 100 µM in each case. Also, the TGI with U251 CNS, in the assay on NCI/ADR-RES ovarian, in the assay on MOLT-4 leukemia, in the assay with UACC-257 melanoma, in the assay with SK-MEL-5 melanoma and with LOX IMVI melanoma was above 100 µM throughout.

Take `COc1ccc2c3c1OC1c4[nH]c5ccccc5c4CC4(O)C(C2)N(C)CCC314` (stereo not drawn): the TGI was 45.9 µM in the assay on RPMI-8226 leukemia; above 100 µM in the assay with OVCAR-5 ovarian; above 100 µM in the assay on A549 NSCLC; above 100 µM with SW-620 colon; 34.5 µM in the assay on SK-MEL-28 melanoma; above 100 µM in the assay with HCT-15 colon. In addition, the TGI in the assay with U251 CNS is 44.8 µM; with NCI/ADR-RES ovarian it was above 100 µM; with MOLT-4 leukemia, 54.1 µM; in the assay on UACC-257 melanoma it was 34.1 µM; with SK-MEL-5 melanoma, 29.5 µM; in the assay on LOX IMVI melanoma, 52 µM.

Take `C[Si](C)(OCCS(=O)(=O)O)C1S(=O)(=O)OCCOS1(=O)=O`: the TGI with RPMI-8226 leukemia, in the assay with OVCAR-5 ovarian, in the assay on SW-620 colon, in the assay on SK-MEL-28 melanoma, with SF-539 CNS and with HCT-15 colon was above 100 µM in each case. For the same compound, the TGI in the assay with U251 CNS, with NCI/ADR-RES ovarian, in the assay with MOLT-4 leukemia, in the assay with UACC-257 melanoma, in the assay on SK-MEL-5 melanoma and in the assay with LOX IMVI melanoma was above 100 µM throughout.

Regarding `CC1(C)CC(=O)c2c(nc3ccc4ccccc4c3c2-c2ccc(NC(=O)CCC(=O)Nc3ccc(-c4c5c(nc6ccc7ccccc7c46)CC(C)(C)CC5=O)cc3)cc2)C1`, the TGI with RPMI-8226 leukemia, in the assay on OVCAR-5 ovarian, in the assay on A549 NSCLC, in the assay on SW-620 colon, with SK-MEL-28 melanoma and in the assay on SF-539 CNS was above 100 µM in each case. Besides, the TGI in the assay on U251 CNS, in the assay with NCI/ADR-RES ovarian, in the assay on MOLT-4 leukemia, with UACC-257 melanoma, in the assay with SK-MEL-5 melanoma and in the assay on LOX IMVI melanoma was above 100 µM throughout.
